# Measurements as given in patent US10377770B2 (Novartis AG, priority 2015, dated 2019).
# Target: C-Raf FL (full length CRAF with Y340E and Y341E activating mutations, co-expressed with h14-3-3 zeta) (Homo sapiens (Human), UniProt P04049, Y340E/Y341E)
# Experiment: In vitro Raf activity determination, AlphaScreen p-MEK readout, c-Raf (C-Raf FL)
# Type: biochemical
# Details: c-Raf approximately 4 nM, ATP 1 μM, pre-incubation 60 minutes, reaction 1 hour
# Summary of the method: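 Full-length C-Raf (~4 nM) pre-incubated 60 min at room temperature with compound and kinase-dead biotinylated MEK1 (~10 nM) in Tris pH 7.5, 15 mM MgCl2, BSA, DTT. Reaction started with 1 μM ATP and run 1 h at room temperature. Phospho-MEK detected by AlphaScreen with anti-p-MEK antibody.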
# Chain of C-Raf FL (full length CRAF with Y340E and Y341E activating mutations, co-expressed with h14-3-3 zeta) (P04049 whole entry Y340E/Y341E): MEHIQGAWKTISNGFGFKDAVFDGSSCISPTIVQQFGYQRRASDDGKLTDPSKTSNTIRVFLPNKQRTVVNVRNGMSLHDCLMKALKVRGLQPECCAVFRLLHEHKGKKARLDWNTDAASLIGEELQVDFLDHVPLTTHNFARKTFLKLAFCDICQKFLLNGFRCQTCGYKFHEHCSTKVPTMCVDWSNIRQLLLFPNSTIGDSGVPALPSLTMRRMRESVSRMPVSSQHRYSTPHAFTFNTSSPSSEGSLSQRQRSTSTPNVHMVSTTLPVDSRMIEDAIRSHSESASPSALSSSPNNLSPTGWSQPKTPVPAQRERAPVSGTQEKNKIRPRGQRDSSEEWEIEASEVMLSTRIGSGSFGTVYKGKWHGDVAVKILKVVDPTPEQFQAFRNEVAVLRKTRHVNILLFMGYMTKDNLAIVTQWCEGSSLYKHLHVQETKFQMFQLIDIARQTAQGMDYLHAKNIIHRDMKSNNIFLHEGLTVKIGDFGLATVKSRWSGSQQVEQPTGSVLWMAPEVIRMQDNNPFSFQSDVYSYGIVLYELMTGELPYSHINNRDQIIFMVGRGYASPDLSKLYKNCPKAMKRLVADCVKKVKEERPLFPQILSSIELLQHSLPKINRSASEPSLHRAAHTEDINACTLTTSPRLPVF
# Chain of C-Raf FL (full length CRAF with Y340E and Y341E activating mutations, co-expressed with h14-3-3 zeta) (P63104 whole entry partner): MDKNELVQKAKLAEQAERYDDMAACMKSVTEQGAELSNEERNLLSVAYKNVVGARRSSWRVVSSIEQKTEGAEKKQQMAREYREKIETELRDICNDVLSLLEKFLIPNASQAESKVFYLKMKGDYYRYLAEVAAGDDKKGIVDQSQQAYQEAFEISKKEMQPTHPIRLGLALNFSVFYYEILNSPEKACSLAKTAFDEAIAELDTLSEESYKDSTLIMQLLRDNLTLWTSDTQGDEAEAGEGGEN
row,Compound,IC50 [pM]
1,"CCN1C(=O)[C@@H]2COCC[C@@]2(C)c2cc(-c3cc(NC(=O)c4ccnc(C(C)(F)F)c4)ccc3C)cnc21 (stereo in doubt) [Example 343, 2-(1,1-difluoroethyl)-N-(3-((4a,10b-trans)6-ethyl-10b-methyl-5-oxo-2,4,4a,5,6,10b-hexahydro-1H-pyrano[3,4-c][1,8]naphthyridin-9-yl)-4-methylphenyl)isonicotinamide]",200
2,"CCN1C(=O)C2COCCC2(C)c2cc(-c3cc(NC(=O)c4ccnc(C(F)(F)F)c4F)ccc3C)cnc21 (stereo not drawn) [Example 347, N-(3-((4a,10b- trans)-6-ethyl-10b-methyl-5-oxo-2,4,4a.5,6,10b-hexahydro-1H-pyrano[3,4-c][1,8]naphthyridin-9-yl)-4-methylphenyl)-3-fluoro-2-(trifluoromethyl) isonicotinamide]",300
3,"Cc1ncc(NC(=O)c2ccnc(C(F)(F)F)c2)cc1-c1ccc2c(c1)N1CCOCC[C@H]1C[C@H]2O [Example 442, N-(5-((5aS,7R)-7-hydroxy-1,2,5,5a,6,7-hexahydro-4H-[1,4]oxazepino [4,5-a]quinolin-10-yl)-6-methylpyridin-3-yl)-2-(trifluoromethyl) isonicotinamide]",700
4,"Cc1ncc(NC(=O)c2cccc(C(F)(F)F)c2)cc1-c1ccc2c(c1)N1CCOCC1C(CO)(CO)C2 (racemic) [Example 51, (rac)-N-(5-(5,5-bis(hydroxymethyl)-1,2,4,4a,5,6-hexahydro-[1,4]oxazino[4,3-a]quinolin-9-yl)-6-methylpyridin-3-yl)-3-(trifluoromethyl)benzamide]",36
5,"Cc1ccc(NC(=O)c2ccnc(C(C)(F)F)c2)cc1-c1cnc2c(c1)N1CCOC[C@@H]1C(F)(F)[C@@H]2O [Example 162, N-(3-((4aR,6R)-5,5-difluoro-6-hydroxy-1,2,4,4a,5,6-hexahydro-[1,4]oxazino[4,3-a][1,5]naphthyridin-9-yl)-4-methylphenyl)-2-(1,1-difluoroethyl)isonicotinamide]",93
6,"Cc1ccc(NC(=O)c2ccnc(C(C)(F)F)c2)cc1-c1ccc2c(c1)N1CCOC[C@H]1C1(COC1)C2 [Example 57, (R)-2-(1,1-difluoroethyl)-N-(4-methyl-3-(1′,2′,4′,4a′-tetrahydro-6′H-spiro[oxetane-3,5′-[1,4]oxazino[4,3-a]quinolin]-9′-yl)phenyl)isonicotinamide]",11
7,"CCOC(=O)c1c2n(c3cc(-c4cc(NC(=O)c5ccnc(C(F)(F)F)c5)ccc4C)ccc3c1=O)CCOC2 [Example 1, ethyl 9-(2-methyl-5-(2-(trifluoromethyl)isonicotinamido)phenyl)-6-oxo-1,2,4,6-tetrahydro-[1,4]oxazino[4,3-a]quinoline-5-carboxylate]",45
8,"Cc1ncc(NC(=O)c2cccc(C(F)(F)F)c2)cc1-c1ccc2c(c1)N1CCOCC[C@H]1C[C@@H]2O [Example 447, N-(5-((5aS,7S)-7-hydroxy-1,2,5,5a,6,7-hexahydro-4H-[1,4]oxazepino [4,5-a]quinolin-10-yl)-6-methylpyridin-3-yl)-3-(trifluoro-methyl)benzamide]",500
9,"CCN1C(=O)C[C@@H]2COCCN2c2cc(-c3cc(NC(=O)c4cncc(C(F)(F)F)c4)ccc3C)cnc21 [Example 328, (R)-N-(3-(7-ethyl-6-oxo-2,4,4a,5,6,7-hexahydro-1H-[1,4]oxazino[4,3-d]pyrido[2,3-b][1,4]diazepin-10-yl)-4-methylphenyl)-5-(trifluoromethyl) nicotinamide]",100
10,"CCN1C(=O)C2COCCN2c2cc(-c3cc(NC(=O)c4ccnc(C(F)(F)F)c4)ccc3C)cnc21 (stereo in doubt) [Example 115, (R)-N-(3-(6-ethyl-5-oxo-1,2,4,4a,5,6-hexahydropyrido2′,3′:5,6]pyrazino[2,1-c][1,4]oxazin-9-yl)-4-methylphenyl)-2-(trifluoromethyl)isonicotinamide]",11
11,"Cc1ccc(NC(=O)c2cc(C(C)(C)N)cc(C(F)(F)F)c2)cc1-c1ccc2c(c1)N1CCOC[C@H]1[C@](F)(CO)C2 [Example 392, 3-(2-aminopropan-2-yl)-N-(3-((4aS,5S)-5-fluoro-5-(hydroxymethyl)-1,2,4,4a.5,6-hexahydro-[1,4]oxazino[4,3-a]quinolin-9-yl)-4-methylphenyl)-5-(trifluoromethyl)benzamide]",3400
12,"CC(=O)NC1CC2COCCN2c2cc(-c3cc(NC(=O)c4ccnc(C(F)(F)F)c4)ccc3C)ccc21 (racemic) [Example 29, N-(3-(6-acetamido-1,2,4,4a,5,6-hexahydro-[1,4]oxazino[4,3-a]quinolin-9-yl)-4-methylphenyl)-2-(trifluoromethyl)isonicotinamide]",170
13,"Cc1ccc(NC(=O)c2ccnc(C(C)(F)F)c2)cc1-c1cnc2c(c1)N1CCOC[C@H]1C[C@]2(C)O (racemic) [Example 42, (rac)-(cis)-2-(1,1-difluoroethyl)-N-(3-(6-hydroxy-6-methyl-1,2,4,4a,5,6-hexahydro-[1,4]oxazino[4,3-a][1,5]naphthyridin-9-yl)-4-methylphenyl)isonicotinamide]",15
14,"Cc1ccc(NC(=O)c2ccnc(C(F)(F)F)c2)cc1-c1cc2c(nn1)OC(C)(C)C1COCCN21 (racemic) [Example 139, rac-N-(3-(6,6-dimethyl-6a,7,9,10-tetrahydro-6H-[1,4]oxazino[4,3-d]pyridazino[3,4-b][1,4]oxazin-2-yl)-4-methylphenyl)-2-(trifluoromethyl)isonicotinamide]",57
15,"CCN1C(=O)C2COCCN2c2cc(-c3cc(NC(=O)c4ccnc(C(F)(F)F)c4)ccc3C)cnc21 (racemic) [Example 113, rac-N-(3-(6-Ethyl-5-oxo-1,2,4,4a,5,6-hexahydropyrido[2′,3′:5,6]pyrazino[2,1-c][1,4]oxazin-9-yl)-4-methylphenyl)-2-(trifluoromethyl)isonicotinamide]",8.4
16,Cc1ccc(NC(=O)c2ccnc(C(C)(F)F)c2)cc1-c1ccc2c(c1)N1CCOC[C@]1(C)C[C@@H]2O (relative stereo) [Example 26],14
17,"Cc1ncc(NC(=O)c2cccc(C(F)(F)F)c2)cc1-c1ccc2c(c1)N1CCOC[C@H]1[C@](F)(CN)C2 [Example 526, N-(5-((4aS,5R)-5-(aminomethyl)-5-fluoro-1,2,4,4a,5,6-hexahydro-[1,4]oxazino[4,3-a]quinolin-9-yl)-6-methylpyridin-3-yl)-3-(trifluoromethyl)benzamide]",2600
18,"CCN1C[C@@H]2COCC[C@H]2c2cc(-c3cc(NC(=O)c4cccc(C(F)(F)F)c4)cnc3C)cnc21 [Example 295, N-(5-((4aR, 10bR)-6-ethyl-2,4,4a,5,6,10b-hexahydro-1H-pyrano[3,4-c][1,8]naphthyridin-9-yl)-6-methylpyridin-3-yl)-3-(trifluoromethyl) benzamide]",100
19,"Cc1ccc(NC(=O)c2ccnc(C(F)(F)F)c2F)cc1-c1cnc2c(c1)N1CCOCC1C(C)(C)C2O (centres unmarked) [Example 337, 3-fluoro-N-(3-(6-hydroxy-5,5-dimethyl-1,2,4,4a,5,6-hexahydro-[1,4]oxazino[4,3-a][1,5]naphthyridin-9-yl)-4-methylphenyl)-2-(trifluoromethyl) isonicotinamide]",300
20,"Cc1ccc(NC(=O)c2ccnc(C(C)(F)F)c2)cc1-c1cnc2c(c1)N1CCOC[C@H]1C(F)(F)[C@H]2O [Example 164, N-(3-((4aS,6S)-5,5-difluoro-6-hydroxy-1,2,4,4a,5,6-hexahydro-[1,4]oxazino[4,3-a][1,5]naphthyridin-9-yl)-4-methylphenyl)-2-(1,1-difluoroethyl)isonicotinamide]",430
21,"Cc1ccc(NC(=O)c2cc(N)nc(C(F)(F)F)c2)cc1-c1ccc2c(c1)N1CCOC[C@H]1[C@](F)(CO)C2 [Example 390, 2-amino-N-(3-((4aS,5S)-5-fluoro-5-(hydroxymethyl)-1,2,4,4a,5,6-hexahydro-[1,4]oxazino[4,3-a]quinolin-9-yl)-4-methylphenyl)-6-(trifluoromethyl)isonicotinamide]",1700
22,"Cc1ccc(NC(=O)c2ccnc(C(F)(F)F)c2)cc1-c1cnc2c(c1)N1CCOC[C@@H]1[C@@](C)(C#N)C2 [Example 378, N-(3-((4aS,5S)-5-cyano-5-methyl-1,2,4,4a,5,6-hexahydro-[1,4]oxazino[4,3-a][1,5]naphthyridin-9-yl)-4-methylphenyl)-2-(trifluoromethyl)isonicotinamide]",200
23,"Cc1ncc(NC(=O)c2cccc(C(F)(F)F)c2)cc1-c1cnc2c(c1)N1CCOC[C@H]1[C@@H](C(C)(C)O)C2 [Example 452, N-(5-((4aR,5S)-5-(2-hydroxypropan-2-yl)-1,2,4,4a,5,6-hexahydro-[1,4]oxazino[4,3-a][1,5]naphthyridin-9-yl)-6-methylpyridin-3-yl)-3-(trifluoro-methyl)benzamide]",500
24,CCN1C(=O)C2CCOCCC2c2cc(-c3cc(NC(=O)c4ccnc(C(F)(F)F)c4)ccc3C)cnc21 (centres unmarked) [Example 248],500
25,"Cc1ccc(NC(=O)c2ccnc(C(F)(F)F)c2)cc1-c1cnc2c(c1)N1CCOC[C@H]1C[C@@]2(O)C(F)(F)F (racemic) [Example 170, rac-cis-N-(3-(6-hydroxy-6-(trifluoromethyl)-1,2,4,4a,5,6-hexahydro-[1,4]oxazino[4,3-a][1,5]naphthyridin-9-yl)-4-methylphenyl)-2-(trifluoromethyl)isonicotinamide]",25
26,"Cc1ncc(NC(=O)c2cccc(C(F)(F)F)c2)cc1-c1ccc2c(c1)N1CCOCC[C@H]1C[C@H]2O [Example 446, N-(5-((5aS,7R)-7-hydroxy-1,2,5,5a,6,7-hexahydro-4H-[1,4]oxazepino [4,5-a]quinolin-10-yl)-6-methylpyridin-3-yl)-3-(trifluoro-methyl)benzamide]",700
